# In EP4635565A1, “PRENYLATED TETRAHYDROQUINOLINES AND QUINOLINES WITH PPAR AGONIST ACTIVITY” (Fundación para la Investigación del Hospital Clínico de la …, priority 2024, dated 2025):
# Key:
# THP-1 cells = experiment: Cytotoxicity, Annexin V-FITC/PI dual staining by flow cytometry; assay type: cell-based, human; conditions: 30 and 100 µM, 24 h
# Protocol: The cytotoxicity of tetrahydroquinoline and quinoline esters 5a, 5b, 8a and 8b was evaluated at 30 and 100 µM by flow cytometry to assess cell survival using an Annexin V-FITC/PI dual staining assay. THP-1 cells (3 × 10^4 cells per well) were seeded in 24-well plates and allowed to grow overnight. The medium was then replaced and incubations with the different compounds or DMSO were performed during 24 h. Then, all cells were processed with the Annexin V-assay kit (ANXCFK7, Immunostep, Salamanca, Spain) according to the manufacturer's instruction. A Becton Dickinson LSR Fortessa cytometer (BD Biosciences, Franklin Lakes, NJ, USA) was used for samples, and cell analysis were performed using FACSDiva X20 software.
# The potential cytotoxic effects of the compounds of the invention 5a, 5b, 8a, and 8b on the human macrophage cell line THP-1 were evaluated by flow cytometry to assess cell survival using an Annexin V-FITC/PI dual staining assay. The THP-1 cells were treated with concentrations of 30 and 100 µM for 24 h.
# Pdk4 = Pdk4 mRNA expression by RT-qPCR in L929sA WT cells; assay type: cell-based, mouse; conditions: 10 µM, 6 h
# Protocol: RNA was isolated using the RNeasy Purification Kit (Qiagen) according to the manufacturer's instructions. cDNA was synthesised using a PrimeScript kit (Takara). RT-qPCR was performed using Light Cycler 480 SYBR Green I Master Mix (Roche).
# Pyruvate Dehydrogenase Kinase 4 gene (Pdk4), a well-known target gene of PPARs, encodes a protein that regulates the phosphorylation and inactivation of the pyruvate dehydrogenase complex in response to physiological conditions. This response switches the energy source from glucose to fatty acids to maintain blood glucose levels to, thereby, increase lipid metabolism. Because it is a well-known target gene of PPARs, the effect of the 2- and 3-prenylated esters of tetrahydroquinolines and quinolines on a Pdk4 region reported to bind PPARα, was evaluated. The L929sA cells that were stably transfected with a PDK4-(PPRE)3-Luc+ reporter gene construct were used.
compound,measurement,setting,value
"CCOC(=O)CC/C(C)=C/CCC1CCc2cc(OCc3ccccc3)ccc2N1C (centres unmarked) [Compound 5a, Ethyl (E)-7-(6-(benzyloxy)-1-methyl-1,2,3,4-tetrahydroquinolin-2-yl)-4-methylhept-4-enoate]",cytotoxic effects (cell survival),THP-1 cells,No cytotoxic effects were observed
same,expression of Pdk4 mRNA,Pdk4,increased expression levels of Pdk4
